What was measured:
field poppy = test: Test D preemergence; format: in vivo, Papaver rhoeas; details: Papaver rhoeas, pre-emergence; for pest or weed control at 31 g/ha: 31 g ai/ha; for pest or weed control at 62 g/ha: 62 g ai/ha; for pest or weed control at 125 g/ha: 125 g ai/ha
From the text: (§1) Seeds of plant species selected from bluegrass (annual bluegrass, Poa annua), blackgrass (Alopecurus myosuroides), canarygrass (littleseed canarygrass, Phalaris minor), chickweed (common chickweed, Stellaria media), galium (catchweed bedstraw, Galium aparine), bromegrass, downy (downy bromegrass, Bromus tectorum), field poppy (Papaver rhoeas), field violet (Viola arvensis), green foxtail (Setaria viridis), deadnettle (henbit deadnettle, Lamium amplexicaule), Italian ryegrass (Lolium multiflorum), kochia (Kochia scoparia), lambsquarters (Chenopodium album), oilseed rape (Brassica napus), pigweed (Amaranthus retroflexus), chamomile (scentless chamomile, Matricaria inodora), Russian thistle (Salsola kali), speedwell (bird's-eye speedwell, Veronica persica), spring barley (Hordeum vulgare), spring wheat (Triticum aestivum), wild buckwheat (Polygonum convolvulus), wild mustard (Sinapis arvensis), wild oat (Avena fatua), wild radish (Raphanus raphanistrum), windgrass (Apera spica-venti), winter barley (Hordeum vulgare), and winter wheat (Triticum aestivum) were planted into a silt loam soil and treated preemergence with test chemicals formulated in a non-phytotoxic solvent mixture which included a surfactant.
(§2) At the same time, these species were planted in pots containing Redi-Earth® planting medium (Scotts Company, 14111 Scottslawn Road, Marysville, Ohio 43041) comprising spaghnum peat moss, vermiculite, wetting agent and starter nutrients and treated with postemergence applications of the test chemicals formulated in the same manner. Plants ranged in height from 2 to 18 cm (1- to 4-leaf stage). Treated plants and controls were maintained in a controlled growth environment for 7 to 21 days after which time all species were compared to controls and visually evaluated. Plant response ratings, summarized in Table D, are based on a scale of 0 to 100 where 0 is no effect and 100 is complete control. A dash (-) response means no test result.

deadnettle = test: Test D preemergence; format: in vivo, Lamium amplexicaule; details: Lamium amplexicaule, pre-emergence; for pest or weed control at 31 g/ha: 31 g ai/ha; for pest or weed control at 62 g/ha: 62 g ai/ha; for pest or weed control at 125 g/ha: 125 g ai/ha
From the text: as §1, §2

Italian ryegrass = test: Test D preemergence; format: in vivo, Lolium multiflorum; details: Lolium multiflorum, pre-emergence; for pest or weed control at 31 g/ha: 31 g ai/ha; for pest or weed control at 62 g/ha: 62 g ai/ha; for pest or weed control at 125 g/ha: 125 g ai/ha
From the text: as §1, §2

speedwell [1] = test: Test D preemergence; format: in vivo, Veronica persica; details: Veronica persica, pre-emergence; for pest or weed control at 31 g/ha: 31 g ai/ha; for pest or weed control at 62 g/ha: 62 g ai/ha; for pest or weed control at 125 g/ha: 125 g ai/ha
From the text: as §1, §2

windgrass = test: Test D preemergence; format: in vivo, Apera spica-venti; details: Apera spica-venti, pre-emergence; for pest or weed control at 31 g/ha: 31 g ai/ha; for pest or weed control at 62 g/ha: 62 g ai/ha; for pest or weed control at 125 g/ha: 125 g ai/ha
From the text: as §1, §2

pigweed = test: Test D postemergence; format: in vivo, Amaranthus retroflexus; details: Amaranthus retroflexus, post-emergence; for pest or weed control at 31 g/ha: 31 g ai/ha; for pest or weed control at 62 g/ha: 62 g ai/ha; for pest or weed control at 125 g/ha: 125 g ai/ha
From the text: as §1, §2

speedwell [2] = test: Test D postemergence; format: in vivo, Veronica persica; details: Veronica persica, post-emergence; for pest or weed control at 31 g/ha: 31 g ai/ha; for pest or weed control at 62 g/ha: 62 g ai/ha; for pest or weed control at 125 g/ha: 125 g ai/ha
From the text: as §1, §2

spring barley = test: Test D postemergence; format: in vivo, Hordeum vulgare; details: Hordeum vulgare, post-emergence, Postemergence, scale 0 to 100 (0 no effect, 100 complete control), read-out: Plant response rating, Barley, Spring; for plant injury at 31 g/ha: 31 g ai/ha; for plant injury at 62 g/ha: 62 g ai/ha; for plant injury at 125 g/ha: 125 g ai/ha
From the text: as §1, §2

winter barley = test: Test D postemergence; format: in vivo, Hordeum vulgare; details: Hordeum vulgare, post-emergence, Postemergence, scale 0 to 100 (0 no effect, 100 complete control), read-out: Plant response rating, Barley, Winter; for plant injury at 31 g/ha: 31 g ai/ha; for plant injury at 62 g/ha: 62 g ai/ha; for plant injury at 125 g/ha: 125 g ai/ha
From the text: as §1, §2

[3] = scale 0-100, read-out: Plant response rating, Field Poppy
[4] = scale 0-100, read-out: Plant response rating, Deadnettle
[5] = scale 0 (no effect) to 100 (complete control), read-out: Plant response rating, Ryegrass, Italian
[6] = scale 0-100, read-out: Plant response rating, Ryegrass, Italian
[7] = scale 0 (no effect) to 100 (complete control), read-out: Plant response rating, Speedwell
[8] = scale 0-100, read-out: Plant response rating, Speedwell
[9] = scale 0 (no effect) to 100 (complete control), read-out: Plant response rating, Windgrass
[10] = scale 0-100, read-out: Plant response rating, Windgrass
[11] = scale 0 to 100 (0 no effect, 100 complete control), read-out: Plant response rating, Pigweed
[12] = scale 0 to 100 (0 no effect, 100 complete control), read-out: Plant response rating, Speedwell

Fc1cccc(Oc2ncc(Cl)cn2)c1-n1cc(C(F)F)nn1 [Compound 141, 5-chloro-2-[2-[4-(difluoromethyl)-1H-1,2,3-triazol-1-yl]-3-fluorophenoxy]pyrimidine]
85%: pest or weed control at 62 g/ha (windgrass; [10])
35%: pest or weed control at 16 g/ha (Italian ryegrass; 16 g ai/ha, scale 0 (no effect) to 100 (complete control), read-out: Plant response rating, Ryegrass, Italian) | pest or weed control at 16 g/ha (windgrass; 16 g ai/ha, scale 0 (no effect) to 100 (complete control), read-out: Plant response rating, Windgrass) | plant injury at 125 g/ha (winter barley)
25%: plant injury at 62 g/ha (spring barley) | plant injury at 125 g/ha (spring barley) | plant injury at 62 g/ha (winter barley)
98%: pest or weed control at 16 g/ha (field poppy; 16 g ai/ha, scale 0 (no effect) to 100 (complete control), read-out: Plant response rating, Field Poppy) | pest or weed control at 62 g/ha (deadnettle; [4]) | pest or weed control at 16 g/ha (pigweed; 16 g ai/ha, scale 0-100, read-out: Plant response rating, Pigweed) | pest or weed control at 31 g/ha (pigweed; [11])
75%: pest or weed control at 125 g/ha (Italian ryegrass; [6])
20%: plant injury at 31 g/ha (spring barley) | plant injury at 16 g/ha (winter barley; 16 g ai/ha) | plant injury at 31 g/ha (winter barley)
55%: pest or weed control at 31 g/ha (Italian ryegrass; [5])
90%: pest or weed control at 16 g/ha (deadnettle; 16 g ai/ha, scale 0 (no effect) to 100 (complete control), read-out: Plant response rating, Deadnettle)
10%: plant injury at 16 g/ha (spring barley; 16 g ai/ha)
100%: pest or weed control at 31 g/ha (field poppy; [3]) | pest or weed control at 62 g/ha (field poppy; [3]) | pest or weed control at 125 g/ha (field poppy; [3]) | pest or weed control at 31 g/ha (deadnettle; [4]) | pest or weed control at 125 g/ha (deadnettle; [4]) | pest or weed control at 16 g/ha (speedwell [1]; 16 g ai/ha, scale 0 (no effect) to 100 (complete control), read-out: Plant response rating, Speedwell) | pest or weed control at 31 g/ha (speedwell [1]; [7]) | pest or weed control at 62 g/ha (speedwell [1]; [8]) | pest or weed control at 125 g/ha (speedwell [1]; [8]) | pest or weed control at 125 g/ha (windgrass; [10]) | pest or weed control at 62 g/ha (pigweed; [11]) | pest or weed control at 125 g/ha (pigweed; [11]) | pest or weed control at 16 g/ha (speedwell [2]; 16 g ai/ha, scale 0-100, read-out: Plant response rating, Speedwell) | pest or weed control at 31 g/ha (speedwell [2]; [12]) | pest or weed control at 62 g/ha (speedwell [2]; [12]) | pest or weed control at 125 g/ha (speedwell [2]; [12])
70%: pest or weed control at 62 g/ha (Italian ryegrass; [6]) | pest or weed control at 31 g/ha (windgrass; [9])

N#Cc1cccc(Oc2ncc(Cl)cn2)c1-n1cc(Br)cn1 [Compound 52, 2-(4-bromo-1H-pyrazol-1-yl)-3-[(5-chloro-2-pyrimidinyl)oxy]benzonitrile]
10%: plant injury at 31 g/ha (spring barley) | plant injury at 31 g/ha (winter barley) | plant injury at 62 g/ha (winter barley)
50%: pest or weed control at 250 g/ha (Italian ryegrass; 250 g ai/ha, scale 0-100, read-out: Plant response rating, Ryegrass, Italian) | pest or weed control at 31 g/ha (windgrass; [9])
0%: pest or weed control at 31 g/ha (Italian ryegrass; [5]) | pest or weed control at 62 g/ha (Italian ryegrass; [6])
95%: pest or weed control at 31 g/ha (field poppy; [3]) | pest or weed control at 250 g/ha (pigweed; 250 g ai/ha, scale 0 to 100 (0 no effect, 100 complete control), read-out: Plant response rating, Pigweed) | pest or weed control at 62 g/ha (speedwell [2]; [12])
75%: pest or weed control at 62 g/ha (deadnettle; [4])
80%: pest or weed control at 62 g/ha (field poppy; [3]) | pest or weed control at 31 g/ha (pigweed; [11])
20%: plant injury at 250 g/ha (spring barley; 250 g ai/ha) | plant injury at 250 g/ha (winter barley; 250 g ai/ha)
70%: pest or weed control at 31 g/ha (deadnettle; [4]) | pest or weed control at 62 g/ha (windgrass; [10]) | pest or weed control at 31 g/ha (speedwell [2]; [12])
5%: pest or weed control at 125 g/ha (Italian ryegrass; [6])
15%: plant injury at 62 g/ha (spring barley) | plant injury at 125 g/ha (spring barley) | plant injury at 125 g/ha (winter barley)
85%: pest or weed control at 62 g/ha (pigweed; [11]) | pest or weed control at 125 g/ha (pigweed; [11])
90%: pest or weed control at 125 g/ha (field poppy; [3])
100%: pest or weed control at 250 g/ha (field poppy; 250 g ai/ha, scale 0-100, read-out: Plant response rating, Field Poppy) | pest or weed control at 125 g/ha (deadnettle; [4]) | pest or weed control at 250 g/ha (deadnettle; 250 g ai/ha, scale 0-100, read-out: Plant response rating, Deadnettle) | pest or weed control at 31 g/ha (speedwell [1]; [7]) | pest or weed control at 62 g/ha (speedwell [1]; [8]) | pest or weed control at 125 g/ha (speedwell [1]; [8]) | pest or weed control at 250 g/ha (speedwell [1]; 250 g ai/ha, scale 0-100, read-out: Plant response rating, Speedwell) | pest or weed control at 125 g/ha (windgrass; [10]) | pest or weed control at 250 g/ha (windgrass; 250 g ai/ha, scale 0-100, read-out: Plant response rating, Windgrass) | pest or weed control at 125 g/ha (speedwell [2]; [12]) | pest or weed control at 250 g/ha (speedwell [2]; 250 g ai/ha, scale 0 to 100 (0 no effect, 100 complete control), read-out: Plant response rating, Speedwell)

Reference: US9695155B2, “Herbicidal substituted pyrimidinyloxy benzene compounds” (E. I. DU PONT DE NEMOURS AND COMPANY, priority 2013, dated 2017)
